This note sets out measurements from ChEMBL document CHEMBL4622963, “Optimization of Nicotinamides as Potent and Selective IRAK4 Inhibitors with Efficacy in a Murine Model of Psoriasis” (ACS Med Chem Lett, 2020).

Data set [1] can be described thus: Toxicity in po dosed imiquimod-induced C57BL/6 mouse model of psoriasis assessed as drug tolerability. It counts as organism-based. The conditions noted are these: in vivo.
A short description of data set [2]: Oral bioavailability in mouse at 5 mg/kg administered via gavage measured up to 24 hrs by LC-MS analysis. The conditions noted are these: in vivo. Type of data set: ADME, organism-based.
Data set [3] in a line: Drug uptake in imiquimod-induced C57BL/6 mouse model of psoriasis at 0.3 mg/kg, po dosed via gavage twice daily and measured after 2 hrs by LC-MS analysis. Type of data set: ADME, organism-based. The conditions noted are these: in vivo, read-out: Drug uptake.
For data set [4], the target named is T1, Tyrosine-protein kinase receptor TYRO3 (Homo sapiens, UniProt Q06418).
T1 sequence (Q06418 whole entry): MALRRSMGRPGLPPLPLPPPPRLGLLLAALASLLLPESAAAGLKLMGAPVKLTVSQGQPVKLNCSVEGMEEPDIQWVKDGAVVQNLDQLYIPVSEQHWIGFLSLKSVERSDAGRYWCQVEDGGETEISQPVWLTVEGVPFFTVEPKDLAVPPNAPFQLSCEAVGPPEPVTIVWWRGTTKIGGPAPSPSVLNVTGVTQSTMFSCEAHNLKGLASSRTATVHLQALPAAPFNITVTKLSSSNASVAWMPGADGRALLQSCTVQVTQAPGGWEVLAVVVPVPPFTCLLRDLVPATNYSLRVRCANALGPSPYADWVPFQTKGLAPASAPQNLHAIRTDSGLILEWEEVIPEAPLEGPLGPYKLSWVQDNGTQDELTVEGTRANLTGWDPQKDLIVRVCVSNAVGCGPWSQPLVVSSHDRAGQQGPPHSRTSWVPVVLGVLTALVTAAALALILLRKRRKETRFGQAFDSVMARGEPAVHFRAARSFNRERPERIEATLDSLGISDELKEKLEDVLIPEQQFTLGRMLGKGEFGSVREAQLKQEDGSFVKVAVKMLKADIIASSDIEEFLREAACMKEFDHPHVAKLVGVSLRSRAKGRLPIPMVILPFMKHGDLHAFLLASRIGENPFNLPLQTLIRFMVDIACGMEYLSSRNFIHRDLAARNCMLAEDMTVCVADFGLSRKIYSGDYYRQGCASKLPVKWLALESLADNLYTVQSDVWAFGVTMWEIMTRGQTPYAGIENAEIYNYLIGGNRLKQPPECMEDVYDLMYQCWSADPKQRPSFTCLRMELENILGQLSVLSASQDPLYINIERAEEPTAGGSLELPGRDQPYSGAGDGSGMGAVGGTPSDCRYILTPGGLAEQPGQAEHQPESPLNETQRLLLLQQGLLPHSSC
The data set can be described thus: Inhibition of human wild type partial length TYRO3 (497 to 814 residues) expressed in bacterial expression system.

A short description of data set [5]: Drug uptake in imiquimod-induced C57BL/6 mouse model of psoriasis at 10 mg/kg, po dosed via gavage twice daily and measured after 2 hrs by LC-MS analysis. Type of data set: ADME, organism-based. The conditions noted are these: in vivo, read-out: Drug uptake.
Data set [6] in a line: Clearance in mouse at 2 mg/kg, iv administered as infusion or 5 mg/kg, po via gavage measured up to 24 hrs by LC-MS analysis. Type of data set: ADME, organism-based. The settings on record: in vivo.
Data set [7] in a line: Drug uptake in imiquimod-induced C57BL/6 mouse model of psoriasis at 1 mg/kg, po dosed via gavage twice daily and measured after 8 hrs by LC-MS analysis. Type of data set: ADME, organism-based. The conditions noted are these: in vivo, read-out: Drug uptake.
In data set [8] the target is T2, Interleukin-1 receptor-associated kinase 4 (Mus musculus) (UniProt Q8R4K2).
T2 sequence (whole entry): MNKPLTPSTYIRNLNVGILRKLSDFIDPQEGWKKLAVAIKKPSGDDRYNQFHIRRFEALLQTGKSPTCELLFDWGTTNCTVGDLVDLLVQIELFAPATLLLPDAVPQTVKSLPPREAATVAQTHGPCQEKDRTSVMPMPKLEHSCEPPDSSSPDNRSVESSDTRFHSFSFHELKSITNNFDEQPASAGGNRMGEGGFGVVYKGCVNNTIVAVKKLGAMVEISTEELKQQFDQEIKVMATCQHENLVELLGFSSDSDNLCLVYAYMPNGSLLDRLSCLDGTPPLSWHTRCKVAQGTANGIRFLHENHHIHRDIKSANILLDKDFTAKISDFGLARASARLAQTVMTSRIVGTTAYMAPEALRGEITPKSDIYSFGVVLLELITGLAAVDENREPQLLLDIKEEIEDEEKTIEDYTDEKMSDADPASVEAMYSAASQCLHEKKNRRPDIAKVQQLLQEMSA
Briefly: In vivo Inhibition of IRAK4 in LTA-treated BALB/c mouse assessed as suppression of IL-6 level in serum at 10 mg/kg by ELISA relative to control. It counts as functional, organism-based. (ELISA stands for enzyme-linked immunosorbent assay.)

The species named for data set [9] is Mus musculus. The data set can be described thus: animal or person. The settings on record: C57BL/6, po, 144 h, read-out: INH.
For data set [10], the target named is Mast/stem cell growth factor receptor Kit (Homo sapiens, UniProt P10721). The data set can be described thus: Inhibition of recombinant N-terminal GST-tagged human cKit (544 to end residues) expressed in baculovirus infected Sf21 cells.
Sequence of Mast/stem cell growth factor receptor Kit (P10721 whole entry): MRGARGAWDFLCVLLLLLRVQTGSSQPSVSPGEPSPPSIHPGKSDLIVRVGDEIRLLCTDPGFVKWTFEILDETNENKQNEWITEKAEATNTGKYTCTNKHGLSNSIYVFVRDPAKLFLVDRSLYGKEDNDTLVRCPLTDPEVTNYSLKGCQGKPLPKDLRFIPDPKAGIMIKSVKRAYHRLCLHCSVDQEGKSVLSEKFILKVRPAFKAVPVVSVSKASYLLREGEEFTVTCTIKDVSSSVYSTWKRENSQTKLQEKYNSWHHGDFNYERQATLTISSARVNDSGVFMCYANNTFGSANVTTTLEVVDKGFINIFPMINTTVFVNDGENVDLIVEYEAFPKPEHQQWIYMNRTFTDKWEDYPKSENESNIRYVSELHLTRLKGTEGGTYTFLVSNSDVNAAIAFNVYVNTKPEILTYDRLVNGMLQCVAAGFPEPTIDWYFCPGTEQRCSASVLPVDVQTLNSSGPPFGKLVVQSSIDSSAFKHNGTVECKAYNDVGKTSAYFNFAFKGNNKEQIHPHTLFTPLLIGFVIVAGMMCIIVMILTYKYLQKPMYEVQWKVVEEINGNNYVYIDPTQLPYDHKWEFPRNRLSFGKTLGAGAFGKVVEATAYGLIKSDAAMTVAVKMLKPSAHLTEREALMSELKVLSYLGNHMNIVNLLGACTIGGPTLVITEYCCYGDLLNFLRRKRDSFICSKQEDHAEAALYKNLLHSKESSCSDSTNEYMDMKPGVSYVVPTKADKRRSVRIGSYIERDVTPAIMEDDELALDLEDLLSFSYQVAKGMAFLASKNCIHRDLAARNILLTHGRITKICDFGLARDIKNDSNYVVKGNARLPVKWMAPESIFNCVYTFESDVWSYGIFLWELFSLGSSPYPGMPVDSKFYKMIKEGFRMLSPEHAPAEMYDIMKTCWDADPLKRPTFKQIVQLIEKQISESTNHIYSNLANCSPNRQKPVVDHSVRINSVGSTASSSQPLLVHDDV
The species named for data set [11] is Mus musculus. Briefly: animal or person. The conditions noted are these: C57BL/6, po, 144 h, read-out: INH. The source holds these as a separate data set.
Data set [12] is described as follows: Drug uptake in imiquimod-induced C57BL/6 mouse model of psoriasis at 1 mg/kg, po dosed via gavage twice daily and measured after 2 hrs by LC-MS analysis. Type of data set: ADME, organism-based. The settings on record: in vivo, read-out: Drug uptake.
In data set [13] the target is T3, Interleukin-1 receptor-associated kinase 4 (Homo sapiens, UniProt Q9NWZ3).
T3 sequence (Q9NWZ3 whole entry): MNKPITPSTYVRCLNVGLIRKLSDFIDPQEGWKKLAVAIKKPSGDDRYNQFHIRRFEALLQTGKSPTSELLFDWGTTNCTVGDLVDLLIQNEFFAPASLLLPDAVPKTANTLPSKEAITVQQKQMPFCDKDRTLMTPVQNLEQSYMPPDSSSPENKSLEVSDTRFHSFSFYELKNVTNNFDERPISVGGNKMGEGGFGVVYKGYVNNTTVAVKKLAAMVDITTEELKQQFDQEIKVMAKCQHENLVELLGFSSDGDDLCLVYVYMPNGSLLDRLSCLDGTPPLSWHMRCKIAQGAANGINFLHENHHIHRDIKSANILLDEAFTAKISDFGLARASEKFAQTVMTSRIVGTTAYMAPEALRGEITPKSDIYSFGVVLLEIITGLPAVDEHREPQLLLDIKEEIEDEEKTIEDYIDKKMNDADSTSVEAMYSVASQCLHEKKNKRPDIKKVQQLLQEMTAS
The data set can be described thus: Inhibition of IRAK4 (unknown origin) using FL-IPTSPITTTYFFFKKK peptide and ATP as substrate incubated for 60 mins by fluorescence based caliper assay.

Data set [14] addresses T3, Interleukin-1 receptor-associated kinase 4. The data set can be described thus: Inhibition of IRAK4 in human whole blood assessed as inhibition of LTA-induced IL-6 production preincubated for 30 mins followed by LTA-stimulation and measured after 5 hrs by ELISA. Type of data set: tissue-based.
The nature of data set [15]: AUC in mouse at 2 mg/kg, iv administered as infusion measured up to 24 hrs by LC-MS analysis. Type of data set: ADME, organism-based. Also noted: time < 24 hr, dose 2 mg/kg, route intravenous. The settings on record: in vivo.
The target of data set [16] is T2, Interleukin-1 receptor-associated kinase 4 (Mus musculus). The data set can be described thus: In vivo Inhibition of IRAK4 in LTA-treated BALB/c mouse assessed as suppression of IL-6 level in serum at 3 mg/kg by ELISA relative to control. It counts as functional, organism-based.
Data set [17] in a line: Permeability across apical to basolateral side in human Caco2 cells. The settings on record: Caco-2.

The structures appear in SMILES notation. A value given as a limit tells only on which side of the number the result lay.

In general, bioavailability refers to the share of a dose that reaches the circulation, judged against a reference dose that is usually intravenous. A lower bioavailability goes with little systemic uptake. The term IC50 denotes the concentration that inhibits the measured activity by half. In general, inhibition refers to the percentage by which the read-out fell short of the control. As usually defined, the AUC is the area under the concentration-time curve, a measure of exposure. High values mean high exposure, low ones low exposure. Broadly, the Papp A→B is how fast a substance crosses the layer from the apical side. Higher therefore signals ready permeation. Consider `CC(C)Nc1cc(Nc2nc3ccnn3cc2F)ncc1C(=O)NC[C@@H](F)C(C)(C)O`, for which the Activity entry in data set [1] is given as “Non-Toxic”. Also, in [2], the bioavailability was over 100%. Further, the concentration at 2 h stood at 42 nM in data set [3], 9400 nM in data set [5] and 400 nM in data set [12]. The IC50 is 980 nM in data set [4], over 2000 nM in data set [10], 3.4 nM in data set [13] and 920 nM in data set [14]. In data set [6], the clearance was found to be 15 mL/min/kg. Also, in data set [7], the concentration at 8 h worked out at 12 nM. Also, the inhibition in data set [8] was determined as 93%; in [16], 87%. For the same compound, the inhibition in vivo at 1 mg/kg in the data set listed under Mus musculus [9] turned out to be 27%; in the data set filed under Mus musculus [11] it was 17%. In [15], this compound came in with an AUC at 24 h of 5 µM·h. Besides, in [17], the Papp A→B worked out at 21.5 ×10⁻⁶ cm/s.
